ChEMBL document CHEMBL1157928, “Discovery and structural optimization of pyrazole derivatives as novel inhibitors of Cdc25B” (Bioorg Med Chem Lett, 2010)

What was measured:
[1] = target: T1, M-phase inducer phosphatase 2 (Homo sapiens, UniProt P30305); test: Inhibition of CDC25B
T1 sequence (P30305 whole entry): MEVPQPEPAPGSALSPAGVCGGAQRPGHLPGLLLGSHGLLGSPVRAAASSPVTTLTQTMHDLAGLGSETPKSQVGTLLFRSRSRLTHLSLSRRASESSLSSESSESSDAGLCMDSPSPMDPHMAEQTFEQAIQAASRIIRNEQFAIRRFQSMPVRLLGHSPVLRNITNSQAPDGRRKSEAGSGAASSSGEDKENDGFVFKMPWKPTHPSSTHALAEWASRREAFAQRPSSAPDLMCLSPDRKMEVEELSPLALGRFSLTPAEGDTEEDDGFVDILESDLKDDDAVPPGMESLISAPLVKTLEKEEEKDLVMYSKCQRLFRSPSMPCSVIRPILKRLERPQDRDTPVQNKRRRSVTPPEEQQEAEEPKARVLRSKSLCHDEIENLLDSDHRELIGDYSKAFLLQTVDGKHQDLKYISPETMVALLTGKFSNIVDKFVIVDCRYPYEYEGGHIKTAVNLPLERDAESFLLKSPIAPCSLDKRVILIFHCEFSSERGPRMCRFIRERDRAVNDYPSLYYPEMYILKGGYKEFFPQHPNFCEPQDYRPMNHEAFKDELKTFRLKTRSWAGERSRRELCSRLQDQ

[2] = target: T2, Tyrosine-protein phosphatase non-receptor type 1 (Homo sapiens, UniProt P18031); test: Inhibition of PTP1B
T2 sequence (P18031 whole entry): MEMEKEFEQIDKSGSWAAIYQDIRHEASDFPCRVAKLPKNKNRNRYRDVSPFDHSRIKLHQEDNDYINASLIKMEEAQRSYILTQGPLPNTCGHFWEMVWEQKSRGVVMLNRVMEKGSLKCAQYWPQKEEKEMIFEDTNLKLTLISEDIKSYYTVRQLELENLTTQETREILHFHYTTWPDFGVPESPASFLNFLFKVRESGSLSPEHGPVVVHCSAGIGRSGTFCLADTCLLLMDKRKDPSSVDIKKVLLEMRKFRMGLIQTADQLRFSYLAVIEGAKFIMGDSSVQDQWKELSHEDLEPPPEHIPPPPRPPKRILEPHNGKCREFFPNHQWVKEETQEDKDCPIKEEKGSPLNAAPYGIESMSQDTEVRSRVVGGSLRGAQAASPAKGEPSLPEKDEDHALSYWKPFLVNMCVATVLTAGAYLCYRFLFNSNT

[3] = target: T3, Tyrosine-protein phosphatase non-receptor type 2 (Homo sapiens, UniProt P17706); test: Inhibition of TCPTP
T3 sequence (P17706 whole entry): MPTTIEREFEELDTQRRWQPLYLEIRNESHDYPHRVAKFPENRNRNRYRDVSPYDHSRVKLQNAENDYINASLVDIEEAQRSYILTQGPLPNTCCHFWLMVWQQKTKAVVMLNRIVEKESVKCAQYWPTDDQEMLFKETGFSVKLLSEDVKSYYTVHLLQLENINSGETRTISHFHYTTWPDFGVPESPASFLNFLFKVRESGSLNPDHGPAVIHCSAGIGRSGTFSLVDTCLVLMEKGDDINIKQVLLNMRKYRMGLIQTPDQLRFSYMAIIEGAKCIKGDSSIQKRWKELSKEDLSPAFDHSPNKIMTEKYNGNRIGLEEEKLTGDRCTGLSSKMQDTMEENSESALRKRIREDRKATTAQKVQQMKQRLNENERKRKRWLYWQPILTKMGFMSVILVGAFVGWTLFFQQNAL

[4] = target: Tyrosine-protein phosphatase non-receptor type 6 (Homo sapiens, UniProt P29350); test: Inhibition of SHP1
Tyrosine-protein phosphatase non-receptor type 6, sequence (P29350 whole entry): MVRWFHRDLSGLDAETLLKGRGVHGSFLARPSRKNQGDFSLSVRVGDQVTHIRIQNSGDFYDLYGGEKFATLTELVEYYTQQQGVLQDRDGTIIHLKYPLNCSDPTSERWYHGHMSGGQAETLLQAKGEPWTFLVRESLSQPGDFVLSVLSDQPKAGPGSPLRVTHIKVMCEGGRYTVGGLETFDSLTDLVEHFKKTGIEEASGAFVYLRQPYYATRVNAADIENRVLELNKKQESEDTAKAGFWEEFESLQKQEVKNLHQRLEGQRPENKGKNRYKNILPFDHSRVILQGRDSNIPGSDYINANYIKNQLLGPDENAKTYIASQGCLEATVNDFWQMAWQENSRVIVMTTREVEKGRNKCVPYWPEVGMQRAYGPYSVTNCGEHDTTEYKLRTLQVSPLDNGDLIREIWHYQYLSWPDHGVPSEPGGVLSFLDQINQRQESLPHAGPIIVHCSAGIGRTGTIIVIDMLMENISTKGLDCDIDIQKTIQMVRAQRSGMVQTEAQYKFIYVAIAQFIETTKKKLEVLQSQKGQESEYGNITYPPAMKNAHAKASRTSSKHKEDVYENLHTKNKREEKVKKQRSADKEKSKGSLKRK

[5] = target: T4, Tyrosine-protein phosphatase non-receptor type 11 (Homo sapiens, UniProt Q06124); test: Inhibition of SHP2
T4 sequence (Q06124 whole entry): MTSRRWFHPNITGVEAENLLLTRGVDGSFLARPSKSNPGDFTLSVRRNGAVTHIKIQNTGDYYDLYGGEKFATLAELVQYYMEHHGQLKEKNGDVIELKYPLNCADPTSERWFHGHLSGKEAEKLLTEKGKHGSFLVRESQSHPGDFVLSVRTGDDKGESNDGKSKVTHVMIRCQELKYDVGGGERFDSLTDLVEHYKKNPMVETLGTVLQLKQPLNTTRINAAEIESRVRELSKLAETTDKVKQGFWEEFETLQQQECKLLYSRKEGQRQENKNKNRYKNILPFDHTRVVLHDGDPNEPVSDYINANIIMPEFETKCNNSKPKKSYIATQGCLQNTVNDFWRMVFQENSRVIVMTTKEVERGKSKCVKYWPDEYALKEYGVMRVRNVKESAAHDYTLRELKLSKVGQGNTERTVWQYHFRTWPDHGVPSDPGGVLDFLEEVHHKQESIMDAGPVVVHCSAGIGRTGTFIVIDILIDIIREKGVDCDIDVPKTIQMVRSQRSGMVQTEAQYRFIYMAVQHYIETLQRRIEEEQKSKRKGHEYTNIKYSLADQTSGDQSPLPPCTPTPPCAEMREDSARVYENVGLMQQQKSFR

[6] = target: Receptor-type tyrosine-protein phosphatase F (Homo sapiens, UniProt P10586); test: Inhibition of PTP-LAR
Receptor-type tyrosine-protein phosphatase F, sequence (P10586 whole entry): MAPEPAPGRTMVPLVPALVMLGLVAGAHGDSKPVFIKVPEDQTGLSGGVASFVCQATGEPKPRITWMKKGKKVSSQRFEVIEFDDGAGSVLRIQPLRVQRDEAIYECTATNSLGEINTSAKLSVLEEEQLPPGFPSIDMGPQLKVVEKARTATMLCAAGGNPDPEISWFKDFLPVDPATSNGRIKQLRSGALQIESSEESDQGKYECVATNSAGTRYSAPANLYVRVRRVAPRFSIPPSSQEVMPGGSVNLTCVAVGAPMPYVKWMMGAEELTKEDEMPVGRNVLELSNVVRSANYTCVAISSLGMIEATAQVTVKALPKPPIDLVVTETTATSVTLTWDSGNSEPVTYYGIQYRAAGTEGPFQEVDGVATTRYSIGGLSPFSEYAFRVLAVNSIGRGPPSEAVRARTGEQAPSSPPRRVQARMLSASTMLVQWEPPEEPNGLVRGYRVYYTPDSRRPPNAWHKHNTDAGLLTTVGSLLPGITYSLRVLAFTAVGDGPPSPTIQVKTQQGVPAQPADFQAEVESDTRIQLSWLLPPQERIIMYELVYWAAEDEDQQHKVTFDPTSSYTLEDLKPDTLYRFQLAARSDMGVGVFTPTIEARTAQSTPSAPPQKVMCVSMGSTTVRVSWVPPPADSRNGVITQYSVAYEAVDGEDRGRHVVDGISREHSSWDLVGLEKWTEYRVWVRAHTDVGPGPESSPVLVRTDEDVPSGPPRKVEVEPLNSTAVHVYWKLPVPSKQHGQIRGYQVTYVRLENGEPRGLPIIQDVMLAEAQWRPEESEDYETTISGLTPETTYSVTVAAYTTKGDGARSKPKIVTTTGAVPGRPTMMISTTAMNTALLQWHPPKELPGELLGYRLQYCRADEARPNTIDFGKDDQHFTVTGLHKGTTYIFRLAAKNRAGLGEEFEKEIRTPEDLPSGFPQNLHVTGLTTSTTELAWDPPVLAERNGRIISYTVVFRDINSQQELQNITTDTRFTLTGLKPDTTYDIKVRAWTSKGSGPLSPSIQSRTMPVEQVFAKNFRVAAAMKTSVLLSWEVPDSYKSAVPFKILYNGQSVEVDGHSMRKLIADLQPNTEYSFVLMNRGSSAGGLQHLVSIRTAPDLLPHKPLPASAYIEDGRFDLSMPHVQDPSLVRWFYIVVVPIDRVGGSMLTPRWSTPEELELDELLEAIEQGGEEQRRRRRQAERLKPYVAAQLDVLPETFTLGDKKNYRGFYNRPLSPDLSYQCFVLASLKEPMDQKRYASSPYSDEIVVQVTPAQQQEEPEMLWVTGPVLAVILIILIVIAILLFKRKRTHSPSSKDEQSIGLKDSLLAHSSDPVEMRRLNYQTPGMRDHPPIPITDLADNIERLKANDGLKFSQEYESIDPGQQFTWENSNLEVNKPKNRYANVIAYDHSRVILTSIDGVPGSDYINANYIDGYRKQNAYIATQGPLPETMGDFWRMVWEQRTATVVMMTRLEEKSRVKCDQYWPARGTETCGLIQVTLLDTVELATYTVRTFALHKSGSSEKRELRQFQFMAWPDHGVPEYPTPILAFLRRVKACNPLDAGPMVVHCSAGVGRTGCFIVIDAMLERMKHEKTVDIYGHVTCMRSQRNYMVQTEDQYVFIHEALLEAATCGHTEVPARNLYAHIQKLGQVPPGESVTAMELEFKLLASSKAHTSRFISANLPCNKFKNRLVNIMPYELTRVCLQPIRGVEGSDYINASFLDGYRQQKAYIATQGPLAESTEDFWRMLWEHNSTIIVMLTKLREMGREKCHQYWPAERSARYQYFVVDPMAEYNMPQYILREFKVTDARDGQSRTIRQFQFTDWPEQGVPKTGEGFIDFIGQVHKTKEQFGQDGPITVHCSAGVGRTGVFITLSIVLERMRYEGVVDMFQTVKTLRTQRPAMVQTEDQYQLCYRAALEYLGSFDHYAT

CCOC(=O)c1n[nH]c2c1C(=O)N(c1cccc(Br)c1)C2=O
IC50 [1]: Not Active

CCCCCCCCCCCCCCCCCC(=O)c1n[nH]c2c1C(=O)N(c1ccc(Br)cc1)C2=O
IC50 ([1]; read-out: IC50): 0.96 µM

CCCCCCCCCCCCCCCCCC(=O)c1n[nH]c2c1C(=O)N(c1ccc(OC)cc1)C2=O
IC50 ([1]; read-out: IC50): 0.54 µM

CCCCCCCCCCCCCCCCCC(=O)c1n[nH]c2c1C(=O)N(c1ccccc1F)C2=O
IC50 ([1]; read-out: IC50): 0.45 µM

CCCCCCCCCCCCCCCCCC(=O)c1cc(C(=O)Nc2ccsc2C(=O)O)[nH]n1
IC50 ([1]; read-out: IC50): 0.12 µM
IC50 ([2]; read-out: IC50): 0.41 µM
IC50 ([3]; read-out: IC50): 1.16 µM
IC50 ([4]; read-out: IC50): 9.79 µM
IC50 ([5]; read-out: IC50): 12.2 µM
IC50 [6]: Not Active

CCOC(=O)c1n[nH]c2c1C(=O)N(c1cccc(F)c1)C2=O
IC50 [1]: Not Active

CCCCCCCCCCCCCCCCCC(=O)c1n[nH]c2c1C(=O)N(c1ccccc1C(F)(F)F)C2=O
IC50 ([1]; read-out: IC50): 0.32 µM

CCCCCCCCCCCCCCCCCC(=O)c1n[nH]c2c1C(=O)N(c1ccc(C)cc1)C2=O
IC50 ([1]; read-out: IC50): 4.33 µM

CCCCCCCCCCCCCCCCCC(=O)c1n[nH]c2c1C(=O)N(c1cccc(OC)c1)C2=O
IC50 ([1]; read-out: IC50): 0.52 µM

CCCCCCCCCCCCCCCCCC(=O)c1n[nH]c2c1C(=O)N(C1CCCCC1)C2=O
IC50 ([1]; read-out: IC50): 2.92 µM

CCCCCCCCCCCCCCCCCC(=O)c1n[nH]c2c1C(=O)N(c1ccccc1C(=O)OC)C2=O
IC50 ([1]; read-out: IC50): 0.41 µM

CCCCCCCCCCCCCCCCCC(=O)c1n[nH]c2c1C(=O)N(c1cccc([N+](=O)[O-])c1)C2=O
IC50 ([1]; read-out: IC50): 1.11 µM

CCCCCCCCCC(=O)c1n[nH]c2c1C(=O)N(c1ccc([N+](=O)[O-])cc1)C2=O
IC50 ([1]; read-out: IC50): 1.39 µM

CCCCCCCCCCCCCC(=O)c1n[nH]c2c1C(=O)N(c1ccc([N+](=O)[O-])cc1)C2=O
IC50 ([1]; read-out: IC50): 0.5 µM

CCCCCCCCCCCCCCCCCC(=O)c1nn(C)c2c1C(=O)N(c1ccccc1)C2=O
IC50 ([1]; read-out: IC50): 30 µM

CCOC(=O)c1n[nH]c2c1C(=O)N(c1cccc([N+](=O)[O-])c1)C2=O
IC50 [1]: Not Active

CCCCCCCCCCCCCCCCCC(=O)c1n[nH]c2c1C(=O)N(c1cccc3ccccc13)C2=O
IC50 ([1]; read-out: IC50): 0.31 µM

CCCCCCCCCCCCCCCCCC(=O)c1n[nH]c2c1C(=O)N(c1cccc(Cl)c1)C2=O
IC50 ([1]; read-out: IC50): 0.24 µM

CCCCCCCCCCCCCCCCCC(=O)c1n[nH]c2c1C(=O)N(c1ccc(C(=O)OC)cc1)C2=O
IC50 ([1]; read-out: IC50): 0.49 µM

CCCCCCCCCCCCCCCCCC(=O)c1n[nH]c2c1C(=O)N(c1cccc(F)c1)C2=O
IC50 ([1]; read-out: IC50): 1.47 µM

CCCCCCCCCCCCCCCCCC(=O)c1n[nH]c2c1C(=O)N(c1ccc([N+](=O)[O-])cc1)C2=O
IC50 ([1]; read-out: IC50): 0.4 µM

CCCCCCCCCCCCCCCCCC(=O)c1n[nH]c2c1C(=O)N(c1ccccc1C)C2=O
IC50 ([1]; read-out: IC50): 2.13 µM

CCCCCCCCCCCCCCCCCC(=O)c1n[nH]c2c1C(=O)N(c1ccccc1Br)C2=O
IC50 ([1]; read-out: IC50): 0.25 µM

CCCCCCCCCCCCCCCCCC(=O)c1n[nH]c2c1C(=O)N(c1cccc(Br)c1)C2=O
IC50 ([1]; read-out: IC50): 1.01 µM

CCOC(=O)c1n[nH]c2c1C(=O)N(c1ccc(OC)cc1)C2=O
IC50 [1]: Not Active

CCCCCCCCCCCCCCCCCC(=O)c1n[nH]c2c1C(=O)N(Cc1ccc(F)cc1)C2=O
IC50 ([1]; read-out: IC50): 2.08 µM

CCCCCCCCCCCCCCCCCC(=O)c1n[nH]c2c1C(=O)N(c1ccc(F)c(Cl)c1)C2=O
IC50 ([1]; read-out: IC50): 1.15 µM

CCOC(=O)c1n[nH]c2c1C(=O)N(c1ccccc1F)C2=O
IC50 [1]: Not Active

CCCCCCCCCCCCCCCCCC(=O)c1n[nH]c2c1C(=O)N(c1ccsc1C(=O)OC)C2=O
IC50 ([1]; read-out: IC50): 0.34 µM

CCCCCCCCCCCCCCCCCC(=O)c1n[nH]c2c1C(=O)N(c1ccccc1)C2=O
IC50 ([1]; read-out: IC50): 0.23 µM
IC50 ([2]; read-out: IC50): 1.56 µM
IC50 ([3]; read-out: IC50): 3.31 µM
IC50 [4]: Not Active
IC50 ([5]; read-out: IC50): 9.59 µM
IC50 [6]: Not Active

CCCCCCCCCCCCCCCCCC(=O)c1n[nH]c2c1C(=O)N(c1ccc(F)cc1)C2=O
IC50 ([1]; read-out: IC50): 0.54 µM

CCCCCCCCCCCCCCCCCC(=O)c1n[nH]c2c1C(=O)N(Cc1ccccc1)C2=O
IC50 ([1]; read-out: IC50): 0.73 µM

CCOC(=O)c1n[nH]c2c1C(=O)N(c1ccc(F)cc1)C2=O
IC50 [1]: Not Active

CCCCCCCCCCCCCCCCCC(=O)c1n[nH]c2c1C(=O)N(c1cccc(C)c1)C2=O
IC50 ([1]; read-out: IC50): 2.6 µM

CCOC(=O)c1n[nH]c2c1C(=O)N(c1ccccc1Cl)C2=O
IC50 [1]: Not Active

CCOC(=O)c1n[nH]c2c1C(=O)N(c1ccccc1Br)C2=O
IC50 [1]: Not Active

CCCCCCCCCCCCCCCCCC(=O)c1cc(C(=O)Nc2ccccc2C(=O)OC)[nH]n1
IC50 ([1]; read-out: IC50): 5.08 µM
IC50 ([2]; read-out: IC50): 7.49 µM
IC50 ([3]; read-out: IC50): 18.7 µM
IC50 [4]: Not Active
IC50 [5]: Not Active
IC50 [6]: Not Active

CCOC(=O)c1n[nH]c2c1C(=O)N(c1cccc(Cl)c1)C2=O
IC50 [1]: Not Active

CCCCCCCCCCCCCCCCCC(=O)c1cc(C(=O)Nc2ccccc2C(=O)O)[nH]n1
IC50 ([1]; read-out: IC50): 0.16 µM
IC50 ([2]; read-out: IC50): 0.35 µM
IC50 ([3]; read-out: IC50): 1.3 µM
IC50 ([4]; read-out: IC50): 10.6 µM
IC50 ([5]; read-out: IC50): 15.2 µM
IC50 [6]: Not Active

CCOC(=O)c1n[nH]c2c1C(=O)N(c1ccccc1OC)C2=O
IC50 [1]: Not Active

CCOC(=O)c1n[nH]c2c1C(=O)N(c1ccc([N+](=O)[O-])cc1)C2=O
IC50 ([1]; read-out: IC50): 31.9 µM
IC50 [2]: Not Active
IC50 [3]: Not Active
IC50 [4]: Not Active
IC50 [5]: Not Active
IC50 [6]: Not Active

CCCCCCCCCCCCCCCCCC(=O)c1n[nH]c2c1C(=O)N(c1ccc(Cl)cc1)C2=O
IC50 ([1]; read-out: IC50): 0.17 µM

CCOC(=O)c1n[nH]c2c1C(=O)N(c1ccccc1C(=O)OC)C2=O
IC50 [1]: Not Active

CCCCCCCCCCCCCCCCCC(=O)c1cc(C(=O)Nc2ccsc2C(=O)OC)[nH]n1
IC50 ([1]; read-out: IC50): 3.36 µM
IC50 ([2]; read-out: IC50): 7.16 µM
IC50 ([3]; read-out: IC50): 18.6 µM
IC50 [4]: Not Active
IC50 [5]: Not Active
IC50 [6]: Not Active

CCOC(=O)c1n[nH]c2c1C(=O)N(c1ccc(Cl)cc1)C2=O
IC50 ([1]; read-out: IC50): 37.4 µM

O=C(c1ccccc1)c1n[nH]c2c1C(=O)N(c1ccc([N+](=O)[O-])cc1)C2=O
IC50 [1]: Not Active
